Key:
Test in all cases: relative viability (nuclei count vs DMSO), 5 days (fraction); higher = more cells survive
BX 795 + Foretinib = compound: O=C(NCCCNc1nc(Nc2cccc(NC(=O)N3CCCC3)c2)ncc1I)c1cccs1 [BX 795] + COc1cc2c(Oc3ccc(NC(=O)C4(C(=O)Nc5ccc(F)cc5)CC4)cc3F)ccnc2cc1OCCCN1CCOCC1 [Foretinib] (partner 0.25 µM)
In short: (§1)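 One day after seeding in 1536-well plates, lung cancer cell lines were dosed by pin tool. Dosing was either single-drug or a fixed anchor-drug dose plus five library-drug doses (not always all listed) in √10 steps. After 5 days, nuclei were stained in one fix-and-stain step and counted on 4× images, and relative viability is the nuclei count of treated wells over that of vehicle wells, given as the median of duplicate plates.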

BX 795 + Alpelisib = compound: O=C(NCCCNc1nc(Nc2cccc(NC(=O)N3CCCC3)c2)ncc1I)c1cccs1 [BX 795] + Cc1nc(NC(=O)N2CCC[C@H]2C(N)=O)sc1-c1ccnc(C(C)(C)C(F)(F)F)c1 [Alpelisib] (partner 2 µM)
In short: as §1

BX 795 + Decitabine = compound: O=C(NCCCNc1nc(Nc2cccc(NC(=O)N3CCCC3)c2)ncc1I)c1cccs1 [BX 795] + Nc1ncn([C@H]2C[C@H](O)[C@@H](CO)O2)c(=O)n1 [Decitabine] (partner 2 µM)
In short: as §1

BX 795 + Lapatinib = compound: O=C(NCCCNc1nc(Nc2cccc(NC(=O)N3CCCC3)c2)ncc1I)c1cccs1 [BX 795] + CS(=O)(=O)CCNCc1ccc(-c2ccc3ncnc(Nc4ccc(OCc5cccc(F)c5)c(Cl)c4)c3c2)o1 [Lapatinib] (partner 2 µM)
In short: as §1

BX 795 + Navitoclax = compound: O=C(NCCCNc1nc(Nc2cccc(NC(=O)N3CCCC3)c2)ncc1I)c1cccs1 [BX 795] + CC1(C)CCC(c2ccc(Cl)cc2)=C(CN2CCN(c3ccc(C(=O)NS(=O)(=O)c4ccc(N[C@H](CCN5CCOCC5)CSc5ccccc5)c(S(=O)(=O)C(F)(F)F)c4)cc3)CC2)C1 [Navitoclax] (partner 0.5 µM)
In short: as §1

Cell Line	relative viability (BX 795 + Foretinib; first compound 0.04 µM)	relative viability (BX 795 + Foretinib; first compound 0.1265 µM)	relative viability (BX 795 + Foretinib; first compound 0.4 µM)	relative viability (BX 795 + Foretinib; first compound 1.265 µM)	relative viability (BX 795 + Alpelisib; first compound 0.04 µM)	relative viability (BX 795 + Alpelisib; first compound 0.1265 µM)	relative viability (BX 795 + Alpelisib; first compound 0.4 µM)	relative viability (BX 795 + Alpelisib; first compound 1.265 µM)	relative viability (BX 795 + Decitabine; first compound 0.04 µM)	relative viability (BX 795 + Decitabine; first compound 0.1265 µM)	relative viability (BX 795 + Decitabine; first compound 0.4 µM)	relative viability (BX 795 + Decitabine; first compound 1.265 µM)	relative viability (BX 795 + Lapatinib; first compound 0.04 µM)	relative viability (BX 795 + Lapatinib; first compound 0.1265 µM)	relative viability (BX 795 + Lapatinib; first compound 0.4 µM)	relative viability (BX 795 + Lapatinib; first compound 1.265 µM)	relative viability (BX 795 + Navitoclax; first compound 0.04 µM)	relative viability (BX 795 + Navitoclax; first compound 0.1265 µM)	relative viability (BX 795 + Navitoclax; first compound 0.4 µM)	relative viability (BX 795 + Navitoclax; first compound 1.265 µM)
201T	1.2	1.13	0.952	1.21	1.01	1.02	1.1	1.03	0.886	0.871	1	0.867	1.1	1.04	1.12	1.01	1.18	1.21	1.24	1.21
A549	0.911	1.02	1.03	0.647	0.761	0.731	0.6	0.267	0.332	0.289	0.329	0.282	0.999	0.88	1	0.146	1.19	1.24	1.47	0.739
A-427	0.98	1.12	1.07	0.897	1.1	1.1	1.1	1.03	0.588	0.588	0.545	0.516	0.842	1	1.06	0.886	0.97	1.02	1.01	0.788
ABC-1	1.03	1.05	0.929	0.601	1.17	1.25	0.911	0.764	1.03	–	1.3	1.49	1.17	1.58	1.14	0.917	–	–	–	–
BEN	0.54	0.645	0.818	0.803	1.06	1.16	1.06	0.995	0.886	0.709	0.673	0.672	0.663	0.841	0.607	0.672	0.0771	0.0586	0.0606	0.0858
CAL-12T	1.16	1.13	0.873	1.07	1.12	1.5	1.29	0.285	–	–	–	–	0.738	0.624	0.608	0.29	1.08	1.23	1.25	0.497
COR-L23	1.07	0.97	0.909	0.715	0.882	0.838	0.98	0.356	0.53	0.42	0.516	0.319	1.14	1.17	0.884	0.663	1.15	1.02	1.02	0.524
COR-L 105	1.29	0.962	0.861	0.662	1.08	0.84	0.745	0.412	0.636	0.589	0.507	0.603	0.354	0.334	0.308	0.293	0.795	0.583	0.652	0.39
ChaGo-K-1	0.993	0.89	0.982	0.767	–	–	–	–	0.535	0.544	0.538	0.398	–	–	–	–	0.817	0.919	0.933	0.982
EKVX	0.496	0.893	0.516	0.726	0.841	0.933	0.808	0.837	0.356	0.336	0.382	0.377	0.248	0.367	0.243	0.208	0.703	1.02	0.851	0.896
EMC-BAC-2	1.01	1.12	0.914	0.322	0.766	0.795	0.715	0.464	1.02	1.03	0.962	0.736	0.907	0.905	0.884	0.758	1.18	1.24	1.24	0.906
EPLC-272H	0.739	0.721	0.653	0.527	1	–	0.905	0.93	0.356	0.472	0.374	0.305	1.01	–	0.893	0.677	1.14	–	1.27	1.12
H3255	0.965	0.764	1.02	0.848	0.873	0.845	0.759	0.584	0.647	0.819	0.664	0.616	0.289	0.234	0.256	0.255	0.663	0.484	0.694	0.527
HARA	0.914	0.935	0.849	0.31	0.752	0.82	1.2	0.605	0.618	0.578	0.684	0.553	0.714	0.564	0.753	0.697	1.13	1.13	1.24	1.13
HCC-15	0.973	1.04	0.925	0.915	0.865	0.877	0.959	0.665	0.585	0.646	0.684	0.448	0.721	0.871	0.795	0.661	0.751	0.7	0.756	0.53
HCC-44	–	–	–	–	0.742	0.865	0.85	0.543	0.952	0.983	1.07	1	0.934	1.01	0.981	1.04	0.872	1.05	1.02	0.708

Source: the supplement of paper PMC10307832
